The values that follow come from patent US20220281930A1, “COMPOSITIONS AND METHODS FOR THE TREATMENT OF PATHOLOGICAL PAIN AND ITCH” (DUKE UNIVERSITY, priority 2019, published 2022).

Experiment [1] relates to intracellular chloride ([Cl—]i). The experiment in a line: Secondary screen: Clomeleon chloride imaging in primary mouse neurons. It is filed as cell-based. The arrangement: chloride reduction (%): concentration or dose not given beside the values. The note with it: for Clomeleon Score (duplicates): rank score; for chloride reduction (%): from the [Cl—]i pair of the same line; for chloride [Cl—]i mM: value after compound, control => treated. Here is the method: (§1) The primary screen encompassed three levels of LUC measurements. The first level of screening yielded a total of 137 compounds with cut-off RLU>125% LUC activity. These 137 compounds were subject to second round of screening, which was carried out in duplicate independent assays to yield the top 103 compounds sorted for highest RLU. The 103 compounds were then subjected to a third round of screening carried out in duplicate independent assays to yield the top 40 compounds which were again ranked. The best 22 of these 40 compounds (ranked for highest RLU activity) were subjected to secondary screening: Cultured neurons were treated with the 22 compounds; RT-qPCR and Clomeleon imaging methodologies (Yeo et al., 2009, J Neurosci 29:14652-14662) were used to determine effects of compounds on KCC2 mRNA expression and [Cl—]i, respectively. Each compound was ranked based on composite scores from primary and secondary screening.
Chloride imaging of primary cultured cortical neurons was conducted as previously described (Kuner and Augustine, 2000, Neuron 27:447-459; Liedtke et al., 2013, Small 9:1066-1075; Yeo et al., 2009, J Neurosci 29:14652-14662). A Clomeleon expression plasmid was transfected into primary cortical neurons by electroporation (Amaxa Nucleofector Device). Transfected neurons were verified by yellow fluorescent protein (YFP) fluorescence, and ratiometric images (excitation at λ=434 nm, dual emission at λ=485 and 535 nm; for resting chloride, six stable frames at […] were captured, which were averaged) were acquired using RATIOTOOL program. Calibration of Clomeleon signals (535 nm/485 nm emission ratio) was performed by using tributyltin-nigericin to establish a standard curve, which was then normalized for measured intraneuronal pH to take into account the pH sensitivity of Clomeleon.
(§2) To identify KCC2 gene expression enhancing compounds, cultured primary cortical neurons were cultured from KCC2-luciferase(LUC)-knockin (KCC2-LUCki) mice (Liedtke et al., 2013, Small 9:1066-1075; Yeo et al., 2013, Proc Natl Acad Sci USA 110:4315-4320) and used LUC metrics as readout for activity of the proximal KCC2 promoter (2.5 kB (Yeo et al., 2009, J Neurosci 29:14652-14662)), which drives LUC in this mouse transgenic line. A Z′ factor of 0.94 was obtained. This strategy will not select for long-range enhancers of KCC2 gene expression that act outside the 2.5 kB core KCC2 promoter. 1057 compounds, contained in two NCI libraries (FIG. 1), related to inhibition of growth of malignantly transformed cells were screened. Iterative screening followed by measurements of KCC2 mRNA (RT-qPCR) and intracellular chloride ([Cl—]i), using clomeleon chloride indicator protein (Kuner and Augustine, 2000, Neuron 27:447-459; Yeo et al., 2009, J Neurosci 29:14652-14662), led to decreasing numbers of confirmed and re-confirmed hits, and 4 “winner” compounds were selected (FIG. 1 and Table 3).

The subject of experiment [2] is KCC2 mRNA. The experiment in a line: Secondary screen: KCC2 RT-qPCR in primary mouse neurons. It is filed as cell-based. The note with it: rank score. The method, then: as §1
Total RNA was isolated from cultured cell samples using Directzol RNA miniprep kit (ZymoResearch). The protocol includes DNAse digestion to exclude genomic DNA from preparations. Total RNA (1 μg) was reverse transcribed using oligo primers (dT) and SuperScriptIII first-strand synthesis kit (Invitrogen). Gene expression was assessed by quantitative real-time PCR using 2×SYBR Green Master Mix (Qiagen) and a three-step cycling protocol (anneal at 60° C./elongate at 72° C., denature at 95° C.). Specificity of primers was verified by dissociation/melting curve for the amplicons when using SYBR Green as a detector. All reactions were performed in triplicates. The amount of target messenger RNA (mRNA) in the experimental group relative to that in the control was determined from the resulting fluorescence and threshold values (Ct) using the ΔΔCt method. βIII-tubulin was used as housekeeping gene.
oligodT-initiated reverse transcription of 1 μg total RNA, DNA-se treated, was subjected to RT-qPCR using primers specific for KCC2 for rat and KCC2 for human sequences, normalized for neuronal βIII-tubulin, as previously described (Yeo et al., 2009, J Neurosci 29:14652-14662). For cultured neurons, total RNA was extracted from pelleted cells, and for spinal cord tissue it was extracted from microdissected lumbar spinal cord dorsal horn.
as §2

Experiment [3] has as its system KCC2 promoter. The experiment in a line: KCC2-LUC luciferase primary screen in primary cortical neurons. It is filed as cell-based, mouse. The note with it: rank score, 100 nM, 48 h. Here is the method:
Cytosine arabinoside ([…]) was added to cultures on the second day after seeding [2 d in vitro (DIV)] to inhibit the proliferation of non-neuronal cells. Cell suspension was plated at a density of 1×10^6 cells/ml onto 24-well tissue-culture dishes coated with poly-d-lysine.
LUC activity was then determined for each compound. Culture supernatant was removed and cells were lysed with 150 μl lysis buffer (Targeting Systems CA, USA cat. CLR1). LUC activity was measured with a RedLuciferase Assay kit (Targeting Systems cat. FLAR) according to the manufacturer's instructions. A Veritas microplate luminometer was used to measure luminescence; for each treatment triplicates of 40 μl cell lysates (from each 24-well tissue-culture dish) were used and 25 μl substrate was injected per well. […] Relative Light units (RLU) for each treatment was derived from Light Units (compound treatment)/vehicle treatment (0.5% DMSO).
The primary screen encompassed three levels of LUC measurements. […] Each compound was ranked based on composite scores from primary and secondary screening.

Experiment [4] has as its system KCC2. Description: Composite score from primary and secondary screening. It is filed as cell-based, mouse. The note with it: for Aggregate Score / Top two hits: Mechanistic Compounds; for Aggregate Score / Total Score: sum of the three scores. The method, then: as §1, §2

With `CC(O)CCC(=O)c1ccoc1` (stereo not shown) [4-Ipomeanol], in experiment [1] (Mechanistic Compounds), the “Clomeleon Score (duplicates)” value is reported as 3. For the same compound, in experiment [1], the “chloride reduction (%)” value is 43.2% and the “chloride [Cl—]i mM” value is 74 => 32 mM. Also, the “RT-QPCR Score (triplicates)” value in experiment [2] (Mechanistic Compounds) stood at 2. For the same compound, in experiment [3] (Mechanistic Compounds), the “Luciferase Score (triplicates)” value is reported as 3. Moreover, the “Aggregate Score” value in experiment [4] was 8.

For `CC(=O)/C(=C\c1cccc([N+](=O)[O-])c1)C(=O)Nc1ccccc1C` [(2E)-N-(2-methylphenyl)-2-[(3-nitrophenyl)methylidene]-3-oxobutanamide], the “Luciferase Score (triplicates)” value in experiment [3] (Mechanistic Compounds) is reported as 5.

In the case of `Cc1ccc(NC(=O)c2cccc([N+](=O)[O-])c2O)c(C)c1` [NSC79456, n-(2,4-Dimethylphenyl)-2-hydroxy-3-nitrobenzamide], the “Clomeleon Score (duplicates)” value in experiment [1] (Mechanistic Compounds) was found to be 1. Also, in experiment [1], the “chloride reduction (%)” value was 32.4% and the “chloride [Cl—]i mM” value is 74 => 24 mM. Moreover, in experiment [2] (Mechanistic Compounds), the “RT-QPCR Score (triplicates)” value is 3. For the same compound, the “Luciferase Score (triplicates)” value in experiment [3] (Mechanistic Compounds) is 1. Further, in experiment [4], the Top two hits result was “winner” and the “Aggregate Score” value stood at 5.

In the case of `Cc1cc(-c2nc3ccccc3s2)ccc1N` [4-(1,3-Benzothiazol-2-yl)-2-methylaniline], the “Clomeleon Score (duplicates)” value in experiment [1] (Mechanistic Compounds) is given as 4. In experiment [1], the “chloride reduction (%)” value was 46.3% and the “chloride [Cl—]i mM” value is recorded as 82 => 38 mM. For the same compound, in experiment [2] (Mechanistic Compounds), the “RT-QPCR Score (triplicates)” value was 5. The “Luciferase Score (triplicates)” value in experiment [3] (Mechanistic Compounds) came out at 4. Besides, in experiment [4], the “Aggregate Score” value was 13.

For `CC(=O)C1CCCC(=O)C=CC(=O)O1` (stereo not shown) [NSC180515, 2-Acetyl-2,3,4,5-tetrahydrooxonine-6,9-dione], the “Clomeleon Score (duplicates)” value in experiment [1] (Natural Compounds) is given as 1. In addition, in experiment [1], the “chloride reduction (%)” value stood at 32% and the “chloride [Cl—]i mM” value is 68 => 22 mM. Also, in experiment [2] (Natural Compounds), the “RT-QPCR Score (triplicates)” value amounted to 1. The “Luciferase Score (triplicates)” value in experiment [3] (Natural Compounds) stood at 4. Besides, in experiment [4] (Natural Compounds), the “Top 2 hits” value was “winner” and the “Total Score” value came to 6.

Turning to `CC1(C)C(O)OC(O)C1(C)C` (stereo not shown) [3,3,4,4-tetramethyloxolane-2,5-diol, 3,3,4,4-tetramethyl-oxolane-2,5-diol], in experiment [3] (Mechanistic Compounds), the “Luciferase Score (triplicates)” value stood at 6.

In the case of `CC1(C)CCC[C@]2(C)C3=C(CC[C@@H]12)C(=O)OC3` [confertifoline], the “Clomeleon Score (duplicates)” value in experiment [1] (Natural Compounds) is recorded as 5. Also, in experiment [1], the “chloride reduction (%)” value was determined as 56% and the “chloride [Cl—]i mM” value is 75 => 42 mM. Besides, in experiment [2] (Natural Compounds), the “RT-QPCR Score (triplicates)” value was determined as 5. The “Luciferase Score (triplicates)” value in experiment [3] (Natural Compounds) is recorded as 1. For the same compound, in experiment [4] (Natural Compounds), the “Total Score” value came out at 11.

For `C[C@@]12C(=O)OC(=O)[C@]1(C)[C@H]1CC[C@@H]2O1` [cantharidine], in experiment [1] (Natural Compounds), the “Clomeleon Score (duplicates)” value is given as 3. Further, in experiment [1], the “chloride reduction (%)” value was 48.5% and the “chloride [Cl—]i mM” value is reported as 68 => 33 mM. Moreover, in experiment [2] (Natural Compounds), the “RT-QPCR Score (triplicates)” value was 6. Also, the “Luciferase Score (triplicates)” value in experiment [3] (Natural Compounds) worked out at 6. For the same compound, the “Total Score” value in experiment [4] (Natural Compounds) is recorded as 15.

On to `NC(=O)c1cn(C2OC(CO)C(O)C2O)c2ncnc(N)c12` (stereo not shown) [Sauzivamycin], for which the “Luciferase Score (triplicates)” value in experiment [3] (Mechanistic Compounds) was determined as 6.

Regarding `CC(=O)N1CCN(c2ccc(OCC3COC(Cn4ccnc4)(c4ccc(Cl)cc4Cl)O3)cc2)CC1` (stereo not shown) [ketoconazole], in experiment [3] (Natural Compounds), the “Luciferase Score (triplicates)” value was 9.

For `COc1ccc(C[C@H]2NC[C@H](O)[C@H]2OC(C)=O)cc1` [anisomycine], the “Clomeleon Score (duplicates)” value in experiment [1] (Natural Compounds) is 6. Further, in experiment [1], the “chloride reduction (%)” value worked out at 57.3% and the “chloride [Cl—]i mM” value is reported as 75 => 43 mM. Also, the “RT-QPCR Score (triplicates)” value in experiment [2] (Natural Compounds) is given as 4. For the same compound, in experiment [3] (Natural Compounds), the “Luciferase Score (triplicates)” value is 3. For the same compound, the “Total Score” value in experiment [4] (Natural Compounds) is given as 13.

On to `CC(=O)Nc1ccc(-c2nc3ccccc3s2)cc1` [NSC33006, N-[4-(1,3-benzothiazol-2-yl)phenyl]acetamide], for which, in experiment [1] (Mechanistic Compounds), the “Clomeleon Score (duplicates)” value is on record as 2. Besides, in experiment [1], the “chloride reduction (%)” value was determined as 37.8% and the “chloride [Cl—]i mM” value is 74 => 28 mM. The “RT-QPCR Score (triplicates)” value in experiment [2] (Mechanistic Compounds) amounted to 1. Moreover, the “Luciferase Score (triplicates)” value in experiment [3] (Mechanistic Compounds) turned out to be 2. For the same compound, in experiment [4], the Top two hits result is listed as “winner” and the “Aggregate Score” value was 5.

For the compound `COc1cc2c(c(OC)c1OC)-c1ccc(OC)c(=O)cc1[C@@H](NC(C)=O)CC2` [colchicine], in experiment [3] (Natural Compounds), the “Luciferase Score (triplicates)” value was 10.

Regarding `COc1cc2c3c(c4ccc(OC)c(OC)c4c2cc1OC)CN1CCC[C@H]1C3` [tylocrebrine], in experiment [1] (Natural Compounds), the “Clomeleon Score (duplicates)” value is recorded as 4. Further, in experiment [1], the “chloride reduction (%)” value turned out to be 52% and the “chloride [Cl—]i mM” value is 75 => 39 mM. Further, in experiment [2] (Natural Compounds), the “RT-QPCR Score (triplicates)” value worked out at 3. The “Luciferase Score (triplicates)” value in experiment [3] (Natural Compounds) was 5. For the same compound, in experiment [4] (Natural Compounds), the “Total Score” value worked out at 12.

With `N=C1N=CN=C2C([C@@H]3O[C@H](CO)[C@@H](O)[C@H]3O)=CN=C12` [9-Deazaadenosine], in experiment [1] (Mechanistic Compounds), the “Clomeleon Score (duplicates)” value is 5. Further, in experiment [1], the “chloride reduction (%)” value was 48.8% and the “chloride [Cl—]i mM” value is on record as 82 => 40 mM. Besides, in experiment [2] (Mechanistic Compounds), the “RT-QPCR Score (triplicates)” value was 4. Moreover, the “Luciferase Score (triplicates)” value in experiment [3] (Mechanistic Compounds) is reported as 2. Also, in experiment [4], the “Aggregate Score” value worked out at 11.

As for `COc1cc([C@@H]2c3cc4c(cc3[C@H](O[C@@H]3O[C@@H]5COC(c6ccccc6)O[C@H]5[C@H](O)[C@H]3O)[C@H]3COC(=O)[C@H]23)OCO4)cc(OC)c1OC` (stereo partly shown) [proresidor], the “Luciferase Score (triplicates)” value in experiment [3] (Natural Compounds) is reported as 9.

Regarding `COc1ccc(C(=O)O[C@H]2CC[C@@]3(C)[C@@H]4CC[C@H]5[C@]6(O)C[C@H](O)[C@@]7(O)[C@@H](CN8C[C@@H](C)CC[C@H]8[C@@]7(C)O)[C@]6(O)C[C@@]53O[C@]24O)cc1OC` [veratridine], in experiment [3] (Natural Compounds), the “Luciferase Score (triplicates)” value is recorded as 7.
